Results reported in article PMC12155096 (International Journal of Molecular Sciences, 2025).
Counter-ions that a name gives are not always drawn. Like-named read-outs stand apart in the source and are kept apart here.

Tests used:
[1] = molecular target: Photinus pyralis (firefly) luciferase (Photinus pyralis, UniProt P08659); assay: biochemical; format: biochemical
human CYP1A2 [2] = molecular target: T1, human CYP1A2 (Homo sapiens, UniProt P05177)
T1 sequence (P05177 1-516): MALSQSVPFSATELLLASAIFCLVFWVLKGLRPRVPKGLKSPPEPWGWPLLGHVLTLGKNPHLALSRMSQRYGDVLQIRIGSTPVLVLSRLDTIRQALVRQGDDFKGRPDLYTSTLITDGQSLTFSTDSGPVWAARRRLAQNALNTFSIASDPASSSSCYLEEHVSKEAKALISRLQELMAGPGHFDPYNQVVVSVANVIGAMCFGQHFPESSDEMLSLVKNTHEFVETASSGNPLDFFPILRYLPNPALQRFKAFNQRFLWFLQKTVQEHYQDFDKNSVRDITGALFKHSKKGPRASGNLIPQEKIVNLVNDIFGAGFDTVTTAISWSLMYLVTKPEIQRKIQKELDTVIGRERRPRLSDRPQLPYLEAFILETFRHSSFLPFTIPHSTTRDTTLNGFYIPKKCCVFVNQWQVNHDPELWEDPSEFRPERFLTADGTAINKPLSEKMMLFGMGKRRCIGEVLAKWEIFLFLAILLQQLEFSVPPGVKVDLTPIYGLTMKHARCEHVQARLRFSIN

human CYP2C9 [3] = molecular target: T2, human CYP2C9 (Homo sapiens, UniProt P11712)
T2 sequence (P11712 whole entry): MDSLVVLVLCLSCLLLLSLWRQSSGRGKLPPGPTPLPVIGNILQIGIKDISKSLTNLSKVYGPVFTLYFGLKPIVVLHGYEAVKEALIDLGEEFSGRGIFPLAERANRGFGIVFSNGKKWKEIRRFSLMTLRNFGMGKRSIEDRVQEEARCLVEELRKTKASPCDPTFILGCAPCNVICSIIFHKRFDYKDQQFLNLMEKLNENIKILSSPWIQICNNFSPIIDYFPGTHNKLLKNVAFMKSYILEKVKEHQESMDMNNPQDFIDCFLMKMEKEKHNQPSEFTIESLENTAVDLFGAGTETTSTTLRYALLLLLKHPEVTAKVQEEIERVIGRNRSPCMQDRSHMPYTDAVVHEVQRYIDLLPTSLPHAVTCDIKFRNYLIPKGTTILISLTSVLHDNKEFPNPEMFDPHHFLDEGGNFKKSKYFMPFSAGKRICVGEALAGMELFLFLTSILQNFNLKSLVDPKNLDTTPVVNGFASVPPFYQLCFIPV

human CYP2C19 [4] = molecular target: T3, human CYP2C19 (Homo sapiens, UniProt P33261)
T3 sequence (P33261 whole entry): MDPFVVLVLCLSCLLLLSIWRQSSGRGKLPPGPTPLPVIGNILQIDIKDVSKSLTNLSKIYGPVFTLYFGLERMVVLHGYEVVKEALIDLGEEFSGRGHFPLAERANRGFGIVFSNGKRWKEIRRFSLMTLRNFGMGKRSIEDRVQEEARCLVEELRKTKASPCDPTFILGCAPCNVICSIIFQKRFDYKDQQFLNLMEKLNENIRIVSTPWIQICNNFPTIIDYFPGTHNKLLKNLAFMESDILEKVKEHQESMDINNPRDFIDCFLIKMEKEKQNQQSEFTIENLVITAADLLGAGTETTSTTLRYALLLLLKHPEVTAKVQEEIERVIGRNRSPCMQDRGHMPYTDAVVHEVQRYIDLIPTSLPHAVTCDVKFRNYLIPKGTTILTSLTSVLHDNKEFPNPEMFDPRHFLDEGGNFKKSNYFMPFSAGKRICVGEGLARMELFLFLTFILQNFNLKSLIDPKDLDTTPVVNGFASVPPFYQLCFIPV

human CYP2D6 [5] = molecular target: T4, human CYP2D6 (Homo sapiens, UniProt P10635); details: human
T4 sequence (P10635 whole entry): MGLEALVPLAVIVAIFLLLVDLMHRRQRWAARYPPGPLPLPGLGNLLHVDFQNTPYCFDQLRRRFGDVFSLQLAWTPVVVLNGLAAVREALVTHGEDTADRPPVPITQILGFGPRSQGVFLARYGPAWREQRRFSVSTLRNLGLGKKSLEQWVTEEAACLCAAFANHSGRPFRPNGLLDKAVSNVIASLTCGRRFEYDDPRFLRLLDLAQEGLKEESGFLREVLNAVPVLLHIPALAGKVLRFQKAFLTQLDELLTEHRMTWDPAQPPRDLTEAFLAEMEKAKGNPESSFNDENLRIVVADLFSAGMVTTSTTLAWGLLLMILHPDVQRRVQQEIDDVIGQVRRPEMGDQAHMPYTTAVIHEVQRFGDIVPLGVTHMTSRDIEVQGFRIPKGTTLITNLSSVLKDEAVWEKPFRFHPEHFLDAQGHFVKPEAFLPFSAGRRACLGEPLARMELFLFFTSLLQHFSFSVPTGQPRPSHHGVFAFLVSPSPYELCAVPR

human CYP1A2 [6] = molecular target: T1, human CYP1A2; assay: biochemical
human CYP2C9 [7] = molecular target: T2, human CYP2C9; assay: biochemical
human CYP2C19 [8] = molecular target: T3, human CYP2C19; assay: biochemical
human CYP2D6 [9] = molecular target: T4, human CYP2D6; assay: biochemical
CYP3A4 = CYP3A4 (Homo sapiens, UniProt P08684)
CYP3A4, sequence (P08684 whole entry): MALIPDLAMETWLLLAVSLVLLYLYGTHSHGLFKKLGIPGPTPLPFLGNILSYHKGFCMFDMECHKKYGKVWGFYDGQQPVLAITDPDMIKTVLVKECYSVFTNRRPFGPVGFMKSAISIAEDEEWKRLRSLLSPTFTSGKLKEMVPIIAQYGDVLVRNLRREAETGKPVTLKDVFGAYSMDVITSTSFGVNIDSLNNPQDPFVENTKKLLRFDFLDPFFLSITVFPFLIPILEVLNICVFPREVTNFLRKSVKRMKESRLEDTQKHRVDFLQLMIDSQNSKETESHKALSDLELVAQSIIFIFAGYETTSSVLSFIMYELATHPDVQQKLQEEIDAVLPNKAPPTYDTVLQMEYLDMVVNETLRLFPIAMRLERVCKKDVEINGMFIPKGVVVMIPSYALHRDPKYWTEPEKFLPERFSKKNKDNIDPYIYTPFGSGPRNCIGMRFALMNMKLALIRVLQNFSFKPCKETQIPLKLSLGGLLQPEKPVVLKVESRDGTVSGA

[10] = CYP1A2 IC50 (half-maximal inhibitory concentration)
[11] = CYP2C9 IC50 (half-maximal inhibitory concentration)
[12] = CYP2C19 IC50 (half-maximal inhibitory concentration)
[13] = CYP2D6 IC50 (half-maximal inhibitory concentration)

Photinus pyralis (firefly) luciferase, sequence (P08659 whole entry): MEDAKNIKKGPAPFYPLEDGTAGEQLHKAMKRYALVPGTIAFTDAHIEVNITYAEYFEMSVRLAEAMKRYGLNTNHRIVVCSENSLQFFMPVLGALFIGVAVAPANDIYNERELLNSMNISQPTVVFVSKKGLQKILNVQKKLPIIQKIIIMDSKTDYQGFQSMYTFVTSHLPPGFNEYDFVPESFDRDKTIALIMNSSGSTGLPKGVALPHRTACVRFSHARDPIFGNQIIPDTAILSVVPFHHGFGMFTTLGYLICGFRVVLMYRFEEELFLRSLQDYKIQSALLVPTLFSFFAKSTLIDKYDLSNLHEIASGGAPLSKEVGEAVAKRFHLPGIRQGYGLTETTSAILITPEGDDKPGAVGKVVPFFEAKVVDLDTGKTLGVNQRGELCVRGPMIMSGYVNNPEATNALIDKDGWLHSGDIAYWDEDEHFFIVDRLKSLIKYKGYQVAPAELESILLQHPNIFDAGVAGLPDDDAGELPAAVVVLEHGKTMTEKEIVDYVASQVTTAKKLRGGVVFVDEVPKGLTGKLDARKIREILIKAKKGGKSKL

SMILES: O=[N+]([O-])c1c2ccccc2cc2ccccc12 [9-Nitroanthracene]
- IC50 [1]: 22.6 µM
- CYP1A2 Efficacy (in parenthesis) (human CYP1A2 [2]; human): 0.27 ± 0.04 (-96 ± 5) %
- CYP2C9 Efficacy (in parenthesis) (human CYP2C9 [3]; human): 13.51 ± 1.21 (-86 ± 11) %
- CYP2C19 Efficacy (in parenthesis) (human CYP2C19 [4]; human): 19.86 ± 2.28 (-116 ± 4) %
- CYP2D6 Efficacy (in parenthesis) (human CYP2D6 [5]): 34.03 ± 2.33 (-39 ± 13) %
- IC50 (human CYP1A2 [6]; [10]): 0.27 µM
- IC50 (human CYP2C9 [7]; [11]): 13.5 µM
- IC50 (human CYP2C19 [8]; [12]): 19.9 µM
- IC50 (human CYP2D6 [9]; [13]): 34 µM

SMILES: CCc1cccc(N(C)C(N)=Nc2cccc3ccccc23)c1 [Aptiganel hydrochloride]
- Luciferase IC50 [1]: Inactive
- CYP1A2 IC50 (human CYP1A2 [2]): Inactive
- CYP3A4 IC50 (CYP3A4): Inactive
- IC50 (human CYP2D6 [9]; CYP2D6 IC50): 0.14 µM

SMILES: C1CCC(NC2CCCCC2)CC1 [Dicyclohexylamine]
- Luciferase IC50 [1]: Inactive
- CYP1A2 IC50 (human CYP1A2 [2]): Inactive
- CYP2C9 IC50 (human CYP2C9 [3]): Inactive
- CYP2C19 IC50 (human CYP2C19 [4]): Inactive
- CYP3A4 IC50 (CYP3A4): Inactive
- IC50 (human CYP2D6 [9]): 0.28 µM

SMILES: CN1[C@@H]2CC[C@H]1C[C@@H](NC(=O)n1c(=O)[nH]c3ccccc31)C2 [Itasetron]
- Luciferase IC50 (half-maximal inhibitory concentration) [1]: Inactive
- CYP1A2 IC50 (half-maximal inhibitory concentration) (human CYP1A2 [2]): Inactive
- CYP2C9 IC50 (half-maximal inhibitory concentration) (human CYP2C9 [3]): Inactive
- CYP2C19 IC50 (half-maximal inhibitory concentration) (human CYP2C19 [4]): Inactive
- CYP3A4 IC50 (half-maximal inhibitory concentration) (CYP3A4): Inactive
- IC50 (human CYP2D6 [9]): 0.87 ± 0.1 µM

SMILES: COC(=O)C1=C(C)NC(C)=C(C(=O)OCCN2CCN(C(c3ccccc3)c3ccccc3)CC2)C1c1cccc([N+](=O)[O-])c1 (centres unmarked) [Manidipine]
- Luciferase IC50 (half-maximal inhibitory concentration) [1]: Inactive
- CYP1A2 IC50 (half-maximal inhibitory concentration) (human CYP1A2 [2]): Inactive
- CYP3A4 IC50 (half-maximal inhibitory concentration) (CYP3A4): Inactive
- IC50 (human CYP2C9 [7]): 0.52 ± 0.3 µM
- IC50 (human CYP2C19 [8]): 2.39 ± 2.01 µM
- IC50 (human CYP2D6 [9]): 6.17 ± 5.32 µM

SMILES: c1ccc2c(c1)Sc1ccccc1N2CC1CN2CCC1CC2 (centres unmarked) [Mequitazine]
- Luciferase IC50 (half-maximal inhibitory concentration) [1]: Inactive
- CYP1A2 IC50 (half-maximal inhibitory concentration) (human CYP1A2 [2]): Inactive
- CYP2C9 IC50 (half-maximal inhibitory concentration) (human CYP2C9 [3]): Inactive
- CYP2C19 IC50 (half-maximal inhibitory concentration) (human CYP2C19 [4]): Inactive
- CYP3A4 IC50 (half-maximal inhibitory concentration) (CYP3A4): Inactive
- IC50 (human CYP2D6 [9]; [13]): 0.29 µM

SMILES: CN1CCCCC1CCN1c2ccccc2Sc2ccc([S+](C)[O-])cc21 (centres unmarked) [Mesoridazine]
- Luciferase IC50 (half-maximal inhibitory concentration) [1]: Inactive
- CYP1A2 IC50 (half-maximal inhibitory concentration) (human CYP1A2 [2]): Inactive
- CYP2C9 IC50 (half-maximal inhibitory concentration) (human CYP2C9 [3]): Inactive
- CYP2C19 IC50 (half-maximal inhibitory concentration) (human CYP2C19 [4]): Inactive
- CYP3A4 IC50 (half-maximal inhibitory concentration) (CYP3A4): Inactive
- IC50 (human CYP2D6 [9]; [13]): 0.09 µM

SMILES: COc1nn(CSP(=S)(OC)OC)c(=O)s1 [Methidathion]
- IC50 [1]: 44 µM
- IC50 (human CYP1A2 [6]; CYP1A2 IC50): 6.58 µM
- IC50 (human CYP2C9 [7]): 6.58 µM
- IC50 (human CYP2C19 [8]; CYP2C19 IC50): 0.8 µM
- IC50 (human CYP2D6 [9]): 35.7 µM

SMILES: CCN(CC)CCOC(=O)C(Cc1cccc2ccccc12)CC1CCCO1 (centres unmarked) [Nafronyl oxalate]
- Luciferase IC50 [1]: Inactive
- CYP2C9 IC50 (human CYP2C9 [3]): Inactive
- IC50 (human CYP1A2 [6]; CYP1A2 IC50): 18.2 µM
- IC50 (human CYP2C19 [8]; CYP2C19 IC50): 7.76 µM
- IC50 (human CYP2D6 [9]; CYP2D6 IC50): 2.98 µM

SMILES: CO[C@]12C[C@@H](COC(=O)c3cncc(Br)c3)CN(C)[C@@H]1Cc1cn(C)c3cccc2c13 [Nicergoline]
- Luciferase IC50 [1]: Inactive
- CYP2C9 IC50 (human CYP2C9 [3]): Inactive
- IC50 (human CYP1A2 [6]; CYP1A2 IC50): 22 µM
- IC50 (human CYP2C19 [8]; CYP2C19 IC50): 11.8 µM
- IC50 (human CYP2D6 [9]; CYP2D6 IC50): 0.07 µM

SMILES: O=C(NCCc1c[nH]c2ccccc12)c1cccnc1 [Nicotredole]
- IC50 [1]: 35.1 µM
- IC50 (human CYP1A2 [6]; [10]): 14.6 µM
- IC50 (human CYP2C9 [7]; [11]): 15.1 µM
- IC50 (human CYP2C19 [8]; [12]): 8.39 µM
- IC50 (human CYP2D6 [9]; [13]): 31 µM

SMILES: Nc1c(Cl)c(Cl)c(Cl)c(Cl)c1Cl [Pentachloroaniline]
- Luciferase IC50 [1]: Inactive
- IC50 (human CYP1A2 [6]; CYP1A2 IC50): 0.85 µM
- IC50 (human CYP2C9 [7]): 51.5 µM
- IC50 (human CYP2C19 [8]; CYP2C19 IC50): 44 µM
- IC50 (human CYP2D6 [9]): 75.3 µM

SMILES: CCCN1C[C@H](CSC)C[C@@H]2c3cccc4[nH]cc(c34)C[C@H]21 [Pergolide methanesulfonate]
- Luciferase IC50 [1]: Inactive
- IC50 (human CYP1A2 [6]; CYP1A2 IC50): 6.54 µM
- IC50 (human CYP2C9 [7]; CYP2C9 IC50): 6.26 µM
- IC50 (human CYP2C19 [8]; CYP2C19 IC50): 8.43 µM
- IC50 (human CYP2D6 [9]; CYP2D6 IC50): 0.15 µM

SMILES: c1ccc2c(c1)Nc1ccccc1S2 [Phenothiazine]
- IC50 [1]: 58.1 µM
- IC50 (human CYP1A2 [6]; [10]): 0.97 µM
- IC50 (human CYP2C9 [7]; [11]): 40.4 µM
- IC50 (human CYP2C19 [8]; [12]): 4.3 µM
- IC50 (human CYP2D6 [9]; [13]): 30.8 µM

SMILES: CCOP(=S)(OCC)O/N=C(\C#N)c1ccccc1 [Phoxim]
- Luciferase IC50 [1]: Inactive
- IC50 (human CYP1A2 [6]; CYP1A2 IC50): 0.99 µM
- IC50 (human CYP2C9 [7]): 2.04 µM
- IC50 (human CYP2C19 [8]; CYP2C19 IC50): 0.28 µM
- IC50 (human CYP2D6 [9]): 22.5 µM

SMILES: c1cc2ccc3cccc4ccc(c1)c2c34 [Pyrene]
- Luciferase IC50 [1]: Inactive
- IC50 (human CYP1A2 [6]; CYP1A2 IC50): 0.64 µM
- IC50 (human CYP2C9 [7]; CYP2C9 IC50): 60.5 µM
- IC50 (human CYP2C19 [8]; CYP2C19 IC50): 24.3 µM
- IC50 (human CYP2D6 [9]; CYP2D6 IC50): 47.1 µM

SMILES: CCOC(=O)COc1ccc2c(c1)C[C@@H](NC[C@H](O)c1cccc(Cl)c1)CC2 [SR58611]
- Luciferase IC50 (half-maximal inhibitory concentration) [1]: Inactive
- CYP1A2 IC50 (half-maximal inhibitory concentration) (human CYP1A2 [2]): Inactive
- CYP3A4 IC50 (half-maximal inhibitory concentration) (CYP3A4): Inactive
- IC50 (human CYP2C9 [7]): 31 ± 4.26 µM
- IC50 (human CYP2C19 [8]): 35.2 ± 8.79 µM
- IC50 (human CYP2D6 [9]): 0.66 ± 0.18 µM

SMILES: O=C(CCCN1CCC2(CC1)C(=O)NCN2c1ccccc1)c1ccc(F)cc1 [Spiperone]
- Luciferase IC50 [1]: Inactive
- CYP1A2 IC50 (human CYP1A2 [2]): Inactive
- CYP2C9 IC50 (human CYP2C9 [3]): Inactive
- CYP2C19 IC50 (human CYP2C19 [4]): Inactive
- CYP3A4 IC50 (CYP3A4): Inactive
- IC50 (human CYP2D6 [9]; CYP2D6 IC50, mean ± standard deviation from three experiments): 0.79 ± 0.18 µM

SMILES: CCOC(=O)c1c(N)sc2c1CCN(Cc1ccccc1)C2 [Tinoridine]
- Luciferase IC50 [1]: Inactive
- IC50 (human CYP1A2 [6]): 16.1 ± 1.09 µM
- IC50 (human CYP2C9 [7]): 6.91 ± 5.97 µM
- IC50 (human CYP2C19 [8]): 0.71 ± 0.38 µM
- IC50 (human CYP2D6 [9]): 0.02 ± 0.01 µM

SMILES: Cl[C@H]1[C@H](Cl)[C@@H](Cl)[C@H](Cl)[C@@H](Cl)[C@H]1Cl [delta-Hexachlorocyclohexane]
- Luciferase IC50 (half-maximal inhibitory concentration) [1]: Inactive
- AC50 (human CYP1A2 [6]; CYP1A2 AC50 (half-maximal activity concentration)): 35.7 µM
- IC50 (human CYP1A2 [6]; [10]): 35.7 µM
- AC50 (human CYP2C9 [7]; CYP2C9 AC50 (half-maximal activity concentration)): 25.6 µM
- IC50 (human CYP2C9 [7]; [11]): 25.6 µM
- AC50 (human CYP2C19 [8]; CYP2C19 AC50 (half-maximal activity concentration)): 2.27 µM
- IC50 (human CYP2C19 [8]; [12]): 2.27 µM
- AC50 (human CYP2D6 [9]; CYP2D6 AC50 (half-maximal activity concentration)): 48.8 µM
- IC50 (human CYP2D6 [9]; [13]): 48.8 µM

SMILES: CN(C/C=C/C#CC(C)(C)C)Cc1cccc2ccccc12 [terbinafine, reference compound]
- Luciferase IC50 [1]: Inactive
- IC50 (human CYP1A2 [6]): 16.8 µM
- IC50 (human CYP2C9 [7]): 15.5 µM
- IC50 (human CYP2C19 [8]): 31.9 µM
- IC50 (human CYP2D6 [9]): 0.4 µM
